{"source": "patent US6500472B2", "about": "“Folic acid and/or vitamin B12-lactoferrin complex” (Snow Brand Milk Products Co., Ltd., priority 2000, dated 2002)", "key": {"[1]": {"conditions": "cited from earlier work"}, "lactoferrin [2]": {"target": "T1, lactoferrin (Bos taurus, UniProt P24627)", "T1 sequence (P24627 20-708)": "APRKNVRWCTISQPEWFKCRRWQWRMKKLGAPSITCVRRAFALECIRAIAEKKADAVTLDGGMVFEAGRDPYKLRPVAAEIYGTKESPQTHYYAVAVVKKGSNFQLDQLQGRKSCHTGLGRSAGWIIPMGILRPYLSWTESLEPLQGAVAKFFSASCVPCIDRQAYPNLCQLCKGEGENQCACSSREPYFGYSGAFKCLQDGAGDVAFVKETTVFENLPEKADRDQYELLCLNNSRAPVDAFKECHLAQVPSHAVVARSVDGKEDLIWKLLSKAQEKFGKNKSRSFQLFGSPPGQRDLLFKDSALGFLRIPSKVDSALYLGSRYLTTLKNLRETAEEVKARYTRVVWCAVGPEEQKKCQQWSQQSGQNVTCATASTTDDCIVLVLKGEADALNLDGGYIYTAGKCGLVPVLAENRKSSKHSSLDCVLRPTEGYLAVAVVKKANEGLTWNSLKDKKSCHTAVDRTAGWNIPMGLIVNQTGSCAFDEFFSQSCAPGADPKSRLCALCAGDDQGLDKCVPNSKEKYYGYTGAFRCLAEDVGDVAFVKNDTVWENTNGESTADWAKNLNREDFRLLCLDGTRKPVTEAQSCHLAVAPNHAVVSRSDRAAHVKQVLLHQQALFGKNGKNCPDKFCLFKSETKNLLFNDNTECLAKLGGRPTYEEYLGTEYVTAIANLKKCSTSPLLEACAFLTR", "assay": "Folic acid held by lactoferrin (UF membrane separation, free folic acid by optical density at 362 nm)", "format": "binding", "conditions": "for Amount of folic acid held per 1 μmol of lactoferrin: 50 mM sodium bicarbonate pH 8.5", "method": "A lactoferrin solution at a concentration of 1 μmol/20 ml was prepared by dissolving lactoferrin in a 50 mM sodium bicarbonate aqueous solution (pH 8.5), and folic acid was added at a concentration of 10 to 300 μmol/20 ml. The resultant admixture was treated with an ultrafiltration (UF) membrane (cut-off molecular weight: 5 kDa; a product of Millipore Corp.) to separate it into the permeate and the retentate. Further, a 50 mM sodium bicarbonate aqueous solution (pH 8.5) was added to the remaining retentate to recover the permeate. This process was repeated four times and the resulting permeate was diluted […] to recover the whole free folic acid into the permeate. The amount of binding-type folic acid remaining in the retentate was calculated from the amount of free folic acid contained in the recovered permeate obtained by measuring optical density at 362 nm. Upon measuring the optical density for folic acid, it was confirmed that no protein was eluted into the permeate and no inhibiting substance derived from proteins existed. Further, a folic acid aqueous solution without protein was simultaneously subjected to the UF membrane treatment to prepare a control sample. These operations and measurements were performed in the dark to prevent decomposition of folic acid. No decomposition of folic acid during the measurement was confirmed by the optical density measurement."}, "[3]": {"assay": "Light radiation test (40-watt fluorescent lamp), folic acid measured by method using microorganisms", "format": "physicochemical", "conditions": "phosphate buffer pH 6.5", "method": "A light radiation test was carried out with a folic acid-lactoferrin complex. Namely, to a 1 μmol lactoferrin solution which was prepared by dissolving lactoferrin into 50 ml of a 50 mM sodium bicarbonate aqueous solution (pH 8.5) was added folic acid to make a 100 μmol solution. The resultant admixture was subjected to dialysis using a dialysis membrane (cut-off molecular weight: 10 kDa) against a 5 mM phosphate buffer solution (pH 6.5) and then to freeze-drying to obtain a folic acid-lactoferrin complex. The resulting folic acid-lactoferrin complex powder was dissolved in a 50 mM phosphoric acid buffer solution (pH 6.5) at a concentration of 3 mg/100 ml. Separately, folic acid (a product of Sigma) was dissolved in a 50 mM phosphoric acid buffer solution (pH 6.5) at a concentration of 0.8 mg/100 ml. Each sample solution (5 ml) was dispensed into a transparent polyethylene container, water was added to a depth of 5 mm, and the solution was subjected to radiation with a 40-watt fluorescent lump from a height of 30 mm, after which the amount of folic acid was measured by a method using microorganisms. Namely, the pH of the folic acid-lactoferrin complex sample was adjusted to 2.0, 2 mg of pepsin (a product of Sigma) per 1 ml sample were added, and proteolysis was carried out at 37 C for 120 minutes, after which the pH was further adjusted to 7.5, 2 mg of trypsin (a product of Sigma) per 1 ml sample were added, and proteolysis was carried out at 37 C for 120 minutes. After deaeration, the reaction solution was heated for 5 minutes and centrifuged at 15,000 G to recover the supernatant. The amount of folic acid was measured by a method using microorganisms (Davis, R. E., D. J. Nicol & A. Kelly, J. Clin. Path., vol. 23, pp. 47-53, 1970). Further, a calibration curve was obtained by using folic acid (a product of Sigma). These operations and measurements were carried out in the dark except for the fluorescent radiation."}, "[4]": {"assay": "Stability of folic acid in citric acid buffer pH 2.5 after sterilization and storage at 37 C", "format": "physicochemical", "method": "Folic acid and the folic acid-lactoferrin complex used in Test Example 2 were each added to a 10 mM citric acid buffer solution (pH 2.5) at a folic acid concentration of 0.25 μmol/10 ml. Next, 50 ml portions of the solutions were dispensed in brown bottles, sterilized at 90 C for 30 minutes and then stored at 37 C. The amount of folic acid was measured in the same manner as in Test Example 2."}, "[5]": {"assay": "Turbidity at 660 nm / solubility in deionized water", "format": "physicochemical", "method": "Folic acid and the folic acid-lactoferrin complex used in Test Example 2 were each added to deionized water at a folic acid concentration of 0.1 to 10 μmol/10 ml to measure turbidity at 660 nm."}, "[6]": {"assay": "Vitamin B12 reduction after sterilization at 90 C and storage at 35 C for 2 months", "format": "physicochemical", "conditions": "sterilized 90 C 30 min, stored 35 C 2 months", "method": "[…] The resultant admixture was subjected to dialysis using a dialysis membrane (cut-off molecular weight: 5 kDa) against deionized water and then to freeze-drying to obtain a vitamin B12-lactoferrin complex in which 57 molecules of vitamin B12 were held per one molecule of lactoferrin. […] […] Portions (5 ml) of each sample solution were dispensed into heat-resistant glass bottles and sealed, sterilized at 90 C for 30 minutes and then stored at 35 C for 2 months. The reduction rates of vitamin B12 were measured. The amount of vitamin B12 was measured in the same manner as in Test Example 5."}, "lactoferrin [7]": {"target": "T1, lactoferrin", "assay": "Vitamin B12 held by lactoferrin (UF membrane separation, method using microorganisms)", "format": "binding", "conditions": "for Amount of vitamin B12 held per 1 μmol of lactoferrin: imidazole buffer pH 6.5", "method": "The resultant solution was treated with a UF membrane (cut-off molecular weight: 5 kDa; a product of Millipore Corp.) to separate it into the permeate and the retentate. Further, a 50 mM imidazole buffer solution (pH 6.5) was added to the remaining retentate to recover the permeate. This process was repeated four times and the resulting permeate was diluted […] to recover whole free vitamin B12 into the permeate. Further, the pH of the vitamin B12-lactoferrin complex sample in the retentate was adjusted to 2.0, 2 mg of pepsin (a product of Sigma) per 1 ml sample were added, and proteolysis was carried out at 37 C for 60 minutes, after which the pH was further adjusted to 7.5, 2 mg of trypsin (a product of Sigma) per 1 ml sample were added, and proteolysis was carried out at 37 C for 120 minutes. After heating, the supernatant was recovered by centrifugation at 15,000 G. The amount of vitamin B12 was measured by a method using microorganisms (Encyclopedia of Vitamins, the Japanese Association of Vitaminology, Asakura Shoten, p. 501, 1996). Further, a calibration curve was obtained by using cyanocobalmin (a product of Sigma)."}, "[8]": {"conditions": "Folic acid concentration 0.1 μmol/10 ml in deionized water"}, "[9]": {"conditions": "Folic acid concentration 1.0 μmol/10 ml in deionized water"}, "[10]": {"conditions": "Folic acid concentration 10 μmol/10 ml in deionized water"}}, "note": "Read-outs that look alike come from different tables or passages of the source."}
{"molecule": "Nc1nc2ncc(CNc3ccc(C(=O)N[C@@H](CCC(=O)O)C(=O)O)cc3)nc2c(=O)[nH]1", "note": "[Folic acid]", "values": [{"measurement": "Folic acid lost", "setting": "[1]; cow's milk, heat sterilization or during storage", "value": "about 60%"}, {"measurement": "Folic acid lost", "setting": "[1]; powdered milk", "value": 25, "unit": "%"}, {"measurement": "Amount of folic acid held per 1 μmol of lactoferrin", "setting": "lactoferrin [2]; Folic acid added 10 μmol", "value": 9.3, "unit": "µmol"}, {"measurement": "Amount of folic acid held per 1 μmol of lactoferrin", "setting": "lactoferrin [2]; Folic acid added 50 μmol", "value": 40, "unit": "µmol"}, {"measurement": "Amount of folic acid held per 1 μmol of lactoferrin", "setting": "lactoferrin [2]; Folic acid added 100 μmol", "value": 79, "unit": "µmol"}, {"measurement": "Amount of folic acid held per 1 μmol of lactoferrin", "setting": "lactoferrin [2]; Folic acid added 200 μmol", "value": 160, "unit": "µmol"}, {"measurement": "Amount of folic acid held per 1 μmol of lactoferrin", "setting": "lactoferrin [2]; Folic acid added 300 μmol", "value": 210, "unit": "µmol"}, {"measurement": "Maximal amount of folic acid incorporated", "setting": "lactoferrin [2]; maximally", "value": "about 200 molecules per one molecule of lactoferrin"}, {"measurement": "Folic acid", "setting": "[3]; Radiation time 0 min", "value": 0.16, "unit": "μmol/10 ml"}, {"measurement": "Folic acid", "setting": "[3]; Radiation time 0.5 min", "value": 0.13, "unit": "μmol/10 ml"}, {"measurement": "Folic acid", "setting": "[3]; Radiation time 7 min", "value": 0.03, "unit": "μmol/10 ml"}, {"measurement": "Folic acid", "setting": "[4]; Before heat pasteurization, citric acid buffer pH 2.5", "value": 0.28, "unit": "μmol/10 ml"}, {"measurement": "Folic acid", "setting": "[4]; Immediately after heat pasteurization (90 C, 30 min), pH 2.5", "value": 0.18, "unit": "μmol/10 ml"}, {"measurement": "Folic acid", "setting": "[4]; Stored for 2 months at 37 C, pH 2.5", "value": 0.05, "unit": "μmol/10 ml"}, {"measurement": "Folic acid", "setting": "[4]; Stored for 4 months at 37 C, pH 2.5", "value": 0.01, "unit": "μmol/10 ml"}, {"measurement": "Appearance of solution", "setting": "[5]; [8]", "value": "Slightly turbid"}, {"measurement": "Turbidity at 660 nm", "setting": "[5]; [8]", "value": 0.01}, {"measurement": "Appearance of solution", "setting": "[5]; [9]", "value": "Insoluble"}, {"measurement": "Turbidity at 660 nm", "setting": "[5]; [9]", "value": 0.025}, {"measurement": "Appearance of solution", "setting": "[5]; [10]", "value": "Insoluble"}, {"measurement": "Turbidity at 660 nm", "setting": "[5]; [10]", "value": 0.034}, {"measurement": "Solubility of folic acid in deionized water", "setting": "[5]; deionized water", "value": "less than 0.1 μmol/10 ml"}]}
{"molecule": "Vitamin B12", "values": [{"measurement": "Vitamin B12 reduction rate", "setting": "[6]; pH 3.0", "value": 48, "unit": "%"}, {"measurement": "Vitamin B12 reduction rate", "setting": "[6]; pH 7.5", "value": 8, "unit": "%"}, {"measurement": "Amount of vitamin B12 held per 1 μmol of lactoferrin", "setting": "lactoferrin [7]; Vitamin B12 added 10 μmol", "value": 4.2, "unit": "µmol"}, {"measurement": "Amount of vitamin B12 held per 1 μmol of lactoferrin", "setting": "lactoferrin [7]; Vitamin B12 added 100 μmol", "value": 41, "unit": "µmol"}, {"measurement": "Amount of vitamin B12 held per 1 μmol of lactoferrin", "setting": "lactoferrin [7]; Vitamin B12 added 500 μmol", "value": 130, "unit": "µmol"}, {"measurement": "Maximal amount of vitamin B12 carried", "setting": "lactoferrin [7]; maximally", "value": "about 100 molecules per one molecule of lactoferrin"}]}
